Measured values taken from ChEMBL document CHEMBL1152388, “Identification of substituted pyrazolo[1,5-a]quinazolin-5(4H)-one as potent poly(ADP-ribose)polymerase-1 (PARP-1) inhibitors” (Bioorg Med Chem Lett, 2009).

Key:
[1] = biological target: Poly [ADP-ribose] polymerase 1 (Homo sapiens, UniProt P09874); experiment: Inhibition of PARP1 by scintillation proximity assay
HeLa = experiment: Inhibition of PAR polymer formation in H2O2-stimulated human HeLa cells; assay type: functional, cell-based

Sequence of Poly [ADP-ribose] polymerase 1 (P09874 whole entry): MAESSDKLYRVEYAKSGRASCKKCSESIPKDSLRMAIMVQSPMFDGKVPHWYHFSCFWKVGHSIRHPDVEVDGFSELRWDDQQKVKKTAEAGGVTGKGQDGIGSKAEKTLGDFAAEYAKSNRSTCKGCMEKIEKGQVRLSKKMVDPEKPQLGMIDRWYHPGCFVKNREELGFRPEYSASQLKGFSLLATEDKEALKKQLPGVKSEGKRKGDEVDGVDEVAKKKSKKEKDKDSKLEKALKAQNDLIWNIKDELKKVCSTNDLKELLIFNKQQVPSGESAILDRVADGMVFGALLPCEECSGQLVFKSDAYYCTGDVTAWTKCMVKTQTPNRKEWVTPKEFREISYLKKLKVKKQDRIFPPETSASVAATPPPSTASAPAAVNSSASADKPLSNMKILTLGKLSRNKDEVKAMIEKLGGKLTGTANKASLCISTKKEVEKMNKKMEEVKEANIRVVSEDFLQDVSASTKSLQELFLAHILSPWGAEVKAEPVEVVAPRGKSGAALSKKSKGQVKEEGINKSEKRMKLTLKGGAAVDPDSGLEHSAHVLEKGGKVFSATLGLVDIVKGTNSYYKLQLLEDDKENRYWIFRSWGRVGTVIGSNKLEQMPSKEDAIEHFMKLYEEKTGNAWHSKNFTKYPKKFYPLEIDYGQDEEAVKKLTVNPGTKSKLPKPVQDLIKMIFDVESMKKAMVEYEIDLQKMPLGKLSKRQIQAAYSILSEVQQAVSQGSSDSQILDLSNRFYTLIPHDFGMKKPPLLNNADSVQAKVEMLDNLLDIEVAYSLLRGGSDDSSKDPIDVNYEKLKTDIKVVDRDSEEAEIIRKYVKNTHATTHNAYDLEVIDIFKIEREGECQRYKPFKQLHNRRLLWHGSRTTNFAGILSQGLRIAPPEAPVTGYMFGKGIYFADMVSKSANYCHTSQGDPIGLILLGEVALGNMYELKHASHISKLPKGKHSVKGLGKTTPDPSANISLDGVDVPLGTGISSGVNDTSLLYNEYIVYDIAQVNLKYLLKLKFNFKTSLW

Row | IC50 [1] | SMILES | EC50 (HeLa)
1 | > 1000 nM | O=C(c1cnn2c1[nH]c(=O)c1ccccc12)N1CCCNCC1 | –
2 | 1100 nM | O=C(c1cc2[nH]c(=O)c3ccccc3n2n1)N1CCC(CN2CCOCC2)CC1 | –
3 | > 1000 nM | O=c1[nH]c2cc(-c3ccc(OC(F)(F)F)cc3)nn2c2ccccc12 | –
4 | 700 nM | O=c1[nH]c2cc(-c3ccc(Br)cc3)nn2c2ccccc12 | –
5 | 2500 nM | O=C(c1ccc(-c2cc3[nH]c(=O)c4ccccc4n3n2)cc1)N1CCN2CCC[C@H]2C1 | –
6 | > 1000 nM | CCCc1ccc(-c2cc3[nH]c(=O)c4ccccc4n3n2)cc1 | –
7 | 800 nM | CN(C)CCN(C)C(=O)c1cccc(-c2cc3[nH]c(=O)c4ccccc4n3n2)c1 | –
8 | > 1000 nM | O=C(NCCN1CCOCC1)c1cnn2c1[nH]c(=O)c1ccccc12 | –
9 | 100 nM | COc1cccc(-c2cc3[nH]c(=O)c4ccccc4n3n2)c1OC | –
10 | 600 nM | O=c1[nH]c2cc(-c3cccc(Br)c3)nn2c2ccccc12 | –
11 | > 1000 nM | CC(C)(C)c1ccc(-c2cc3[nH]c(=O)c4ccccc4n3n2)cc1 | –
12 | > 1000 nM | N#Cc1ccc(-c2cc3[nH]c(=O)c4ccccc4n3n2)cc1 | –
13 | 1400 nM | CN1CCN(C(=O)c2ccc(-c3cc4[nH]c(=O)c5ccccc5n4n3)cc2)CC1 | –
14 | 100 nM | CN(C)CCN(C)C(=O)c1cc2[nH]c(=O)c3ccccc3n2n1 | –
15 | 500 nM | O=c1[nH]c2cc(-c3ccc(Cl)cc3)nn2c2ccccc12 | –
16 | 200 nM | COc1ccc(-c2cc3[nH]c(=O)c4ccccc4n3n2)c(OC)c1 | –

Row | IC50 [1] | SMILES | EC50 (HeLa)
17 | 500 nM | Cc1ccc(-c2cc3[nH]c(=O)c4ccccc4n3n2)cc1 | –
18 | 1000 nM | CN1CCN(C(=O)c2cccc(-c3cc4[nH]c(=O)c5ccccc5n4n3)c2)CC1 | –
19 | 300 nM | Cc1cc2[nH]c(=O)c3ccccc3n2n1 | –
20 | 1300 nM | CN(C)CCN(C)C(=O)c1ccc(-c2cc3[nH]c(=O)c4ccccc4n3n2)cc1 | –
21 | 500 nM | O=c1[nH]c2cc(-c3cccc(Cl)c3)nn2c2ccccc12 | –
22 | 200 nM | COc1ccc(-c2cc3[nH]c(=O)c4ccccc4n3n2)cc1OC | –
23 | 600 nM | O=C(c1cc2[nH]c(=O)c3ccccc3n2n1)N1CCN2CCC[C@H]2C1 | –
24 | > 1000 nM | CN1CCN(C(=O)c2cnn3c2[nH]c(=O)c2ccccc23)CC1 | –
25 | > 1000 nM | O=c1[nH]c2cc(-c3ccc(F)cc3)nn2c2ccccc12 | –
26 | 400 nM | CC(C)Cc1cc2[nH]c(=O)c3ccccc3n2n1 | –
27 | 100 nM | O=c1[nH]c2cc(-c3ccccc3)nn2c2ccccc12 | –
28 | > 1000 nM | O=c1[nH]c2cc(-c3cccc(F)c3)nn2c2ccccc12 | –
29 | > 1000 nM | CN1CCCN(C(=O)c2cnn3c2[nH]c(=O)c2ccccc23)CC1 | –
30 | 500 nM | CCc1ccc(-c2cc3[nH]c(=O)c4ccccc4n3n2)cc1 | –
31 | 30 nM | O=C(c1cc2[nH]c(=O)c3ccccc3n2n1)N1CCCNCC1 | –

Row | SMILES | IC50 [1] | EC50 (HeLa)
32 | CN1CCC(CNC(=O)c2cc3[nH]c(=O)c4ccccc4n3n2)CC1 | 70 nM | –
33 | O=C(c1cccc(-c2cc3[nH]c(=O)c4ccccc4n3n2)c1)N1CCN2CCC[C@H]2C1 | 500 nM | –
34 | O=C(c1cc2[nH]c(=O)c3ccccc3n2n1)N1CCN(CC2CC2)CC1 | 300 nM | –
35 | CN1CCC(CNC(=O)c2cc3[nH]c(=O)c4ccccc4n3n2)C1 (stereo not given) | 80 nM | –
36 | O=c1[nH]c2cc(-c3cccs3)nn2c2ccccc12 | 150 nM | –
37 | CN1CCN(C(=O)c2cc3[nH]c(=O)c4ccccc4n3n2)CC1 | 300 nM | –
38 | O=c1[nH]c2cc(C3CCCCC3)nn2c2ccccc12 | 200 nM | –
39 | O=C(NCCC1(N2CCOCC2)CCCC1)c1cc2[nH]c(=O)c3ccccc3n2n1 | 90 nM | –
40 | O=c1[nH]c2cc(-c3ccco3)nn2c2ccccc12 | 200 nM | –
41 | COc1cc(-c2cc3[nH]c(=O)c4ccccc4n3n2)cc(OC)c1OC | 30 nM | –
42 | O=C(NCCCN1CCOCC1)c1cc2[nH]c(=O)c3ccccc3n2n1 | 140 nM | –
43 | O=C(NCCN1CCOCC1)c1cc2[nH]c(=O)c3ccccc3n2n1 | 140 nM | –
44 | CN1CCCN(C(=O)c2cc3[nH]c(=O)c4ccccc4n3n2)CC1 | 10 nM | 3900 nM
